Experimental data reported in article PMC7327383, “The affinity and selectivity of α‐adrenoceptor antagonists, antidepressants, and antipsychotics for the human α1A, α1B, and α1D‐adrenoceptors” (Pharmacology Research & Perspectives, 2020).
Read-outs that look alike come from different tables or passages of the source. Each block holds one compound with its values, some of them ahead of it.

What was measured:
human α1A-adrenoceptor = target: T1, human α1A-adrenoceptor (Homo sapiens, UniProt P35348); experiment: [3H]prazosin whole-cell competition binding, CHO-α1A cells; conditions: for selectivity α1A vs 1D / selectivity α1A vs α1B: ratio, 1 = no selectivity for a subtype over another; for Kd: read-out: Log KD α1A (converted)
T1 construct: CHO cells stably expressing either the full‐length human α1A, α1B, or α1D‐adrenoceptor
T1 sequence (P35348 1-466): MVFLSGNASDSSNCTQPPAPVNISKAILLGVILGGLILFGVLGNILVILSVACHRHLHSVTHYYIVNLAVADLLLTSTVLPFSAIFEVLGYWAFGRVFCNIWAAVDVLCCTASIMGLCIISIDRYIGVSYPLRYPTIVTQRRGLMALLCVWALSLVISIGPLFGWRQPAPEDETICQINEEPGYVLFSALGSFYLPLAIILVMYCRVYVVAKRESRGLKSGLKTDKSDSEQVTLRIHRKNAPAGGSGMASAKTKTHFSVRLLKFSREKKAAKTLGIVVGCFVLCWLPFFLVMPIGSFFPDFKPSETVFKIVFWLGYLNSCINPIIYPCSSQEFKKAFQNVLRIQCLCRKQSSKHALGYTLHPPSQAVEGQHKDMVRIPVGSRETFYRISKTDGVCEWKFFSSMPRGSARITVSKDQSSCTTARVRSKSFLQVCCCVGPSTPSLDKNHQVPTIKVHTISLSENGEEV

human α1B-adrenoceptor = target: T2, human α1B-adrenoceptor (Homo sapiens, UniProt P35368); experiment: [3H]prazosin whole-cell competition binding, CHO-α1B cells; conditions: for Kd / Log KD α1B: single-component inhibition curve, given as log KD (negative), mean ± SE mean; for Kd: read-out: Log KD α1B (converted); for Selectivity ratio α1B vs α1D: ratio of KD values, higher α1B affinity, 1.0 under vs = none
T2 construct: CHO cells stably expressing either the full‐length human α1A, α1B, or α1D‐adrenoceptor
T2 sequence (P35368 1-520): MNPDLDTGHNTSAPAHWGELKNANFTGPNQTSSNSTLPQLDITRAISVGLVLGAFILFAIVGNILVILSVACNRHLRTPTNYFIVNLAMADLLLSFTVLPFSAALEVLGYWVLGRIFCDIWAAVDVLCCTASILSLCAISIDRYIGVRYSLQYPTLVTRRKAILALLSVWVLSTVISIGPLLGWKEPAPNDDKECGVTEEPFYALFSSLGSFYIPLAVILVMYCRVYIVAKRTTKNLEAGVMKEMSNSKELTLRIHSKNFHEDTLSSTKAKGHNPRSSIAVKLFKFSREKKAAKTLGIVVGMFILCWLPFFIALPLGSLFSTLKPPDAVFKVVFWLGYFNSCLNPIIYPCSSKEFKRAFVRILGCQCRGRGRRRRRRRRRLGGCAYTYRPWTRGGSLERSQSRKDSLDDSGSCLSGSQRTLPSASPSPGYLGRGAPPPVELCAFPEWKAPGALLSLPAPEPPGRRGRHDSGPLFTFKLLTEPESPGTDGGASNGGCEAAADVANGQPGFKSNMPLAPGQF

[1] = target: T3, full-length human α1D-adrenoceptor (Homo sapiens, UniProt P25100); experiment: [3H]prazosin whole-cell competition binding, CHO-α1D cells
T3 sequence (P25100 1-572): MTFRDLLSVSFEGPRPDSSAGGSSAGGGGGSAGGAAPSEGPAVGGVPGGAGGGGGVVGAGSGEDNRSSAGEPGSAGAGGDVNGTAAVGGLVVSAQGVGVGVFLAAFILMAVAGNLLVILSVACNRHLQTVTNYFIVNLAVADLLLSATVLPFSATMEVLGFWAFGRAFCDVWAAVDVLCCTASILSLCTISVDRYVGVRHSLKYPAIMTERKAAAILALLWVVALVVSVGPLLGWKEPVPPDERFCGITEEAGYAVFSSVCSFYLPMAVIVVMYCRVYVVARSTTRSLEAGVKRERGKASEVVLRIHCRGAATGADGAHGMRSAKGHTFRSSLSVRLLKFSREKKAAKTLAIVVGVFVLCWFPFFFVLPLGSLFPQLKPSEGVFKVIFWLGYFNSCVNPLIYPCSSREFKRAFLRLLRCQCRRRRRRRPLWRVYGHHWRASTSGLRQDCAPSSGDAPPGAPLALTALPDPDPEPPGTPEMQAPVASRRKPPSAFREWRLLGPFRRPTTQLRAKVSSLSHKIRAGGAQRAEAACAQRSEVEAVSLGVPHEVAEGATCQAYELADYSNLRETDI

[2] = log KD from 3H-prazosin whole cell binding, CHO cells, mean ± s.e.mean
[3] = ratio, 1 = no selectivity for a subtype over another
[4] = ratio of KD values, higher α1A affinity, 1.0 under vs = none
[5] = ratio of KD values, printed under α1A = higher α1A affinity, 1.0 under vs = none
[6] = single-component inhibition curve, given as log KD (negative), mean ± SE mean
[7] = Log KD α1D, single-component inhibition curve, given as log KD (negative), mean ± SE mean
[8] = ratio of KD values, higher α1D affinity (site 1 KD)
[9] = selectivity ratio, 1 = no selectivity for a given receptor subtype over another
[10] = low-affinity component of two-component curve, control
[11] = share of site 1 in the two-component inhibition curve
[12] = two-component inhibition curve, proportion of site 1

- Selectivity ratio α1A vs α1D (human α1A-adrenoceptor; [4]): 16 fold
- Selectivity ratio α1A vs α1B (human α1A-adrenoceptor; [5]): 11 fold
- Log KD α1A (human α1A-adrenoceptor; [6]): −6.51 ± 0.09
- Selectivity ratio α1B vs α1D (human α1B-adrenoceptor): 1.4 fold
- Log KD α1B (human α1B-adrenoceptor): −5.46 ± 0.06
- Log KD α1D [1, 6]: −5.31 ± 0.13
Compound: COC1(C2=NCCN2)COc2ccccc2O1 (centres unmarked) [RX821002]

- Log KD α1A (human α1A-adrenoceptor; [6]): −9.35 ± 0.08
- Log KD α1B (human α1B-adrenoceptor): −8.15 ± 0.07
- % site 1 α1D ([1]; percentage of inhibition through first component, control): 60.5 ± 1.4% site 1
Compound: COc1ccccc1N1CCN(CCN2C(=O)c3ccccc3C(C)(C)C2=O)CC1 [ARC239]

More lines, now with the values behind:

Compound: CC(C)OC(=O)c1cc2c(OCC(O)CNC(C)(C)C)cccc2[nH]1 (centres unmarked) [SDZ 21009]
- Log KD α1A (human α1A-adrenoceptor; [2]): -5.24 ± 0.07
- selectivity α1A vs 1D (human α1A-adrenoceptor): 1.4
- selectivity α1A vs α1B (human α1A-adrenoceptor): >17
- Log IC50 α1B (human α1B-adrenoceptor; log IC50 bound): Log IC50>-4
- selectivity α1B vs α1D (human α1B-adrenoceptor; [3]): >12
- Log KD α1D [1, 2]: -5.09 ± 0.18

Compound: CN(C)CC/C=C1\c2ccccc2CSc2ccccc21 [Dosulepin]
- Selectivity ratio α1A vs α1D (human α1A-adrenoceptor; [4]): 34 fold
- Selectivity ratio α1A vs α1B (human α1A-adrenoceptor; [5]): 68 fold
- Kd (human α1A-adrenoceptor; [6]): 77.6 nM
- selectivity α1B vs α1D (human α1B-adrenoceptor; [3]): 2.0
- Kd (human α1B-adrenoceptor): 5250 nM
- Kd [1, 7]: 2630 nM
- Selectivity ratio α1B vs α1D [1, 8]: 2.0 fold

Compound: CC(C)(Cc1c[nH]c2ccccc12)NCC(O)COc1ccccc1C#N (centres unmarked) [Bucindolol]
- Selectivity ratio α1A vs α1D (human α1A-adrenoceptor; [4]): 13 fold
- Selectivity ratio α1A vs α1B (human α1A-adrenoceptor; [5]): 13 fold
- selectivity α1A vs 1D (human α1A-adrenoceptor): 13.2
- selectivity α1A vs α1B (human α1A-adrenoceptor): 13
- selectivities α1A vs α1B (human α1A-adrenoceptor; [9]): 13
- selectivities α1A vs α1D (human α1A-adrenoceptor; [9]): 13
- Kd (human α1A-adrenoceptor; [6]): 26.9 nM
- α1A affinity, fold lower than that for the human β1 adrenoceptor (human α1A-adrenoceptor; β1 affinity from ref 53): 54 fold
- α1A affinity, fold lower than that for the β2 adrenoceptor (human α1A-adrenoceptor; β2 affinity from refs 52, 53): 263 fold
- selectivity α1B vs α1D (human α1B-adrenoceptor; [3]): 1.0
- Kd (human α1B-adrenoceptor): 347 nM
- Kd [1, 7]: 355 nM
- Selectivity ratio α1B vs α1D [1, 8]: 1.0 fold

Compound: CCN1CCCC1CNC(=O)c1cc(S(N)(=O)=O)ccc1OC (centres unmarked) [Sulpiride]
- Selectivity ratio α1A vs α1D (human α1A-adrenoceptor; [4]): 6.9 fold
- Selectivity ratio α1A vs α1B (human α1A-adrenoceptor; [5]): >32 fold
- selectivity α1A vs α1B (human α1A-adrenoceptor): >31
- Kd (human α1A-adrenoceptor; [6]): 31600 nM
- selectivity α1B vs α1D (human α1B-adrenoceptor; [3]): >4.6
- Kd ([1]; Log KD α1D (apparent), app: top concentration inhibited most but not all specific binding, curve extrapolated): 219000 ± 5380 nM
- Selectivity ratio α1B vs α1D [1, 8]: >4.6 fold

Compound: CN1CCN(c2ccc(Nc3c4ccccc4nc4ccccc34)cc2)CC1 [JP1302]
- Log KD α1A (human α1A-adrenoceptor; [6]): −6.21 ± 0.04
- Log KD α1B (human α1B-adrenoceptor): −5.46 ± 0.02
- Log KD α1D [1, 6]: −5.58 ± 0.09

Compound: Labetolol
- Selectivity ratio α1A vs α1B (human α1A-adrenoceptor): 26 fold
- Selectivity ratio α1A vs α1D (human α1A-adrenoceptor): 16 fold
- selectivity α1B vs α1D (human α1B-adrenoceptor): 1.6
- Selectivity ratio α1B vs α1D [1]: 1.6 fold

Compound: ClCCN(Cc1ccccc1)Cc1ccccc1 [Dibenamine]
- Log KD α1A site 1 (human α1A-adrenoceptor; high-affinity component of two-component curve, control (no thiosulphate)): −7.91 ± 0.06
- Log KD α1A site 2 (human α1A-adrenoceptor; [10]): −5.32 ± 0.08
- Selectivity ratio α1A vs α1D (human α1A-adrenoceptor; [4]): 3.5 fold
- Selectivity ratio α1A vs α1B (human α1A-adrenoceptor; [5]): 22 fold
- % site 1, α1A (human α1A-adrenoceptor; [11]): -7.91 ± 0.06 -5.32 ± 0.08 83.0 ± 1.8% site 1
- % site 1, α1A (human α1A-adrenoceptor; [12]): -7.91 ± 0.06 -5.32 ± 0.08 83.0 ± 1.8% site 1
- Log KD α1B site 1 (human α1B-adrenoceptor; high-affinity component of two-component curve, control): −6.57 ± 0.07
- Log KD α1B site 2 (human α1B-adrenoceptor; [10]): −4.66 ± 0.06
- selectivity α1B vs α1D (human α1B-adrenoceptor; [3]): 6.3
- % site 1, α1B (human α1B-adrenoceptor; [11]): -6.57 ± 0.07 -4.66 ± 0.06 67.6 ± 2.6% site 1
- % site 1, α1B (human α1B-adrenoceptor; [12]): -6.57 ± 0.07 -4.66 ± 0.06 67.6 ± 2.6% site 1
- Log KD α1D site 1 ([1]; high-affinity component of two-component curve, control, used for selectivity): −7.37 ± 0.15
- Log KD α1D site 2 [1, 10]: −5.00 ± 0.14
- Selectivity ratio α1B vs α1D [1, 8]: 6.3 fold
- % site 1 α1D [1, 12]: -7.37 ± 0.15 -5.00 ± 0.14 47.8 ± 3.2% site 1

Compound: COc1ccc(C(CN(C)C)C2(O)CCCCC2)cc1 (centres unmarked) [Venlafaxime]
- Log KD α1A (apparent) (human α1A-adrenoceptor; app: top concentration inhibited most but not all specific binding, curve extrapolated): −3.69 ± 0.02^app
- Selectivity ratio α1A vs α1B (human α1A-adrenoceptor; [5]): >4.9 fold
- selectivity α1A vs 1D (human α1A-adrenoceptor): 4.9
- Log KD α1B: result in words (human α1B-adrenoceptor; no inhibition of [3H]prazosin binding at maximum concentration possible): No binding to 1 mmol/L
- selectivity α1B vs α1D (human α1B-adrenoceptor; [3]): >24
- binding at α1B (human α1B-adrenoceptor; result in words in the Log KD α1B column): No binding to 1mM
- binding at α1B (result in words) (human α1B-adrenoceptor; up to the maximum concentration): No binding to 1mM
- Selectivity ratio α1A vs α1D [1, 8]: 4.9 fold
- Selectivity ratio α1B vs α1D [1, 8]: >24 fold
- Log KD α1D [1, 6]: −4.38 ± 0.16

Compound: N=C(CC(O)COc1ccccc1-c1ccccc1)N1CCCCC1 (centres unmarked) [AH11110A]
- Selectivity ratio α1A vs α1D (human α1A-adrenoceptor; [4]): 32 fold
- Selectivity ratio α1A vs α1B (human α1A-adrenoceptor; [5]): 6.8 fold
- Log KD α1A (human α1A-adrenoceptor; [6]): −6.48 ± 0.03
- Selectivity ratio α1B vs α1D (human α1B-adrenoceptor): 4.7 fold
- Log KD α1B (human α1B-adrenoceptor): −5.65 ± 0.09
- Log KD α1D [1, 6]: −4.98 ± 0.06
